In ChEMBL document CHEMBL1201862, “PubChem BioAssay data set” (2004):
Calls of active or inactive are those of the source.

target: T1, Calpain-2 catalytic subunit (Sus scrofa, UniProt P43367); experiment: pig calpain II inhibitor potency, dose response, biochemical, fluorogenic peptide substrate (AID 1420); assay type: functional; conditions: not given
T1 sequence (P43367 whole entry): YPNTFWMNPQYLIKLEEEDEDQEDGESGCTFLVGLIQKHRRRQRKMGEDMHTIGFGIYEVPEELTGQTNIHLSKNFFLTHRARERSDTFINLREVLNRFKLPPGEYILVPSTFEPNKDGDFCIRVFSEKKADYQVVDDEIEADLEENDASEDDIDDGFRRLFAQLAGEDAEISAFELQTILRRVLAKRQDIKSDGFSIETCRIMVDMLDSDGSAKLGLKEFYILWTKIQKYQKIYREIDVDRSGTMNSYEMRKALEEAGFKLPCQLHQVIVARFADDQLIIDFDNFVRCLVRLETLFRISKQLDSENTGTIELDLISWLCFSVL

IC50	Compound
> 50 µM (not active)	Cc1cc(NC(=O)CCN2C(=O)/C(=C/c3ccccc3Cl)SC2=S)no1
> 50 µM (not active)	O=C1c2ccccc2C(=O)N1CCCC(=O)N1CCCc2ccccc21
9.31 µM (not active)	CCCCSc1nnc(-c2ccccc2)c2ccccc12
10.1 µM (not active)	CCCCCCCCNC(=O)c1ccc(C)cc1
5.15 µM (active)	CC(C)(C)c1ccc(CNc2ccc([N+](=O)[O-])cn2)cc1
17.1 µM (not active)	O=C(Cc1cn(Cc2cccc(Cl)c2)c2ccccc12)N1CCCC1

Continued, molecule first:

Compound	IC50
O=C(NC1CCCCC1)C1c2ccccc2C(=O)N1Cc1ccc2c(c1)OCO2 (configuration not stated)	20.2 µM (not active)
Nc1cc(Oc2cccnc2)cc([N+](=O)[O-])c1	> 50 µM (not active)
Cc1cccc(Oc2cc(N)cc([N+](=O)[O-])c2)c1	> 50 µM (not active)

target: T2, Heat shock factor protein 1 (Mus musculus, UniProt P38532); experiment: HSF1 potentiators in luciferase reporter cells, confirmation, cell-based, NIH3T3, luminescence, dose retest (AID 435004); assay type: functional; conditions: not given;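 also: stress induced by proteasome inhibitor MG132 added 30 min after compound; luciferase reporter driven by HSF1 response element in NIH3T3 cells; actives raise luminescence as potentiators of the MG132 stress response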
T2 sequence (P38532 whole entry): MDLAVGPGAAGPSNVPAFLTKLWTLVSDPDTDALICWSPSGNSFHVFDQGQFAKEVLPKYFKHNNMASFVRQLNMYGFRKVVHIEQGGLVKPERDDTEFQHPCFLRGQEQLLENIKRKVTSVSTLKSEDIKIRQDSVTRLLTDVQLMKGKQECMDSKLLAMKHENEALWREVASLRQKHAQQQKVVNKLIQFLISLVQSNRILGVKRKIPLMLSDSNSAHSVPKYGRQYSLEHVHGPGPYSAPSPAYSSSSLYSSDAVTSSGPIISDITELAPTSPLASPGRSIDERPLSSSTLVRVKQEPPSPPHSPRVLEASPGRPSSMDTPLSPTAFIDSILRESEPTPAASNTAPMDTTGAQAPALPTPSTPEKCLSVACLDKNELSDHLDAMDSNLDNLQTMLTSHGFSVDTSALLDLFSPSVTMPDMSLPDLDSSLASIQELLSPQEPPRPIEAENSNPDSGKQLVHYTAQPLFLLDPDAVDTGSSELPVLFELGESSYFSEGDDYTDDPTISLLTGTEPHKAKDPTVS

EC50	Compound
> 260 µM (inactive)	CCOC(=O)c1ccc(N2C(=O)CC(N3CCC(Nc4ccc(F)cc4)CC3)C2=O)cc1 (configuration not stated)

target: Cytochrome P450 2C19 (Homo sapiens, UniProt P33261); experiment: Cytochrome panel assay with activity outcomes. Panel member name: p450-cyp2c19 Compounds with AC50 equal or less than 10 uM are considered active; assay type: functional; conditions: read-out: AC50
Sequence (P33261 whole entry): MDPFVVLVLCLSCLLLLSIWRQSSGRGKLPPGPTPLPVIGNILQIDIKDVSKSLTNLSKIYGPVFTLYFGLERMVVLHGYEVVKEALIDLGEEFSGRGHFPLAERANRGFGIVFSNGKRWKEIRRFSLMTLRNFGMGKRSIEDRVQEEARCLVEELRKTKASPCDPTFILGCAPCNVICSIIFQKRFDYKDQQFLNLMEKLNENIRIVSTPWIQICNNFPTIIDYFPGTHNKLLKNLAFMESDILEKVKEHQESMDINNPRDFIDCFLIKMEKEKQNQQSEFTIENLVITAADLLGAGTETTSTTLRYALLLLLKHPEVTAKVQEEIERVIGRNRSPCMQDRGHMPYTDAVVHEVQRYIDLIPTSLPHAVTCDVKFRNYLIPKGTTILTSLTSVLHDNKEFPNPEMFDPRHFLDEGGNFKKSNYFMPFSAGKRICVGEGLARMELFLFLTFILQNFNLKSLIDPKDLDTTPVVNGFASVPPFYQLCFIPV

Compound	AC50
COc1ccc(/C=N/NC(=O)c2sccc2OCc2ccc(F)cc2)cc1OC	17.8 µM (inconclusive)

target: Heat shock protein HSP 90-alpha (Homo sapiens, UniProt P07900); experiment: not given; assay type: functional, organism-based; conditions: not given

AC50	Compound
1.57 µM (active)	CCn1c(CNc2ccc(Cl)cc2)nnc1SCc1ccccc1
3.01 µM (active)	CCOC(=O)c1ccc(N2C(=O)CC(N3CCC(Nc4ccc(F)cc4)CC3)C2=O)cc1 (configuration not stated)
17.7 µM (active)	Cc1ccc(S(=O)(=O)NCC23C=CC(O2)C2C(=O)N(c4ccccc4)C(=O)C23)cc1 (configuration not stated)

tested on: INS1; experiment: beta cell apoptosis inhibitors, cytokine rescue, dose response, luminescence, retest (AID 449756); assay type: functional, cell-based; conditions: Rattus norvegicus;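 also: cell death triggered by IL-1 beta plus TNF-alpha plus IFN-gamma mixture; protective hits raise ATP signal compared with cytokine alone wells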

Compound	AC50
Cc1ccc(C(=O)N/C(=C\c2ccc(-c3ccccc3[N+](=O)[O-])o2)C(=O)NCCCN2CCOCC2)cc1	6.33 µM (active)
O=C(CSc1nc2ccccc2c(=O)n1-c1ccccc1)N1CCc2ccccc2C1	3.61 µM (active)

tested on: H9c2; experiment: cells; assay type: functional, cell-based; conditions: Rattus norvegicus, H9c2, Myocardium;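 also: confirmatory concentration-response retest of ultra-high-throughput screening hits for modulation of myocardial damage; cell death induced by hydrogen peroxide oxidative stress; compound pretreatment for 60 min then peroxide exposure for 2 h; potency is for protecting the cells against peroxide damage rather than for killing them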

Compound	IC50
COc1ccc(/C=N/NC(=O)c2sccc2OCc2ccc(F)cc2)cc1OC	> 79 µM (inactive)
CCCn1c(=O)c2[nH]c(-c3ccc(OCC(=O)Nc4ccc(C#N)cc4)cc3)nc2n(CCC)c1=O	> 79 µM (inactive)

target: Paired box protein Pax-8 (Homo sapiens, UniProt Q06710); experiment: inhibitors of PAX8-driven TPO luciferase reporter, dose response, RMG-I cells, cherry-pick (AID 687027); assay type: functional, cell-based; conditions: not given;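 also: luciferase reporter driven by Pax8 target thyroperoxidase promoter measured by SteadyGlo luminescence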
Sequence (Q06710 whole entry): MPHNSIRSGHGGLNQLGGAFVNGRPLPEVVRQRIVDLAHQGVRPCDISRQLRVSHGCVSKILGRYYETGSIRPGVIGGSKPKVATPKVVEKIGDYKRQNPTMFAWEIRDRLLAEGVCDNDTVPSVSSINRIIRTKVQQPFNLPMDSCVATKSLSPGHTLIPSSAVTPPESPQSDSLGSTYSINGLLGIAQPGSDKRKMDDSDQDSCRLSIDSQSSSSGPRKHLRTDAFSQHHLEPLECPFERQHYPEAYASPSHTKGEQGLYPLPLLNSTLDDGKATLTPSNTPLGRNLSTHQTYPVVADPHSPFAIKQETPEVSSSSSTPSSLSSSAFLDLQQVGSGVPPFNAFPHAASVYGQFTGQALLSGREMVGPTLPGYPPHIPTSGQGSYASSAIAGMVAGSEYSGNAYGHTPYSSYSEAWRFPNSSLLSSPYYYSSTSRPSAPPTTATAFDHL

AC50	Compound
5.71 µM (active)	O=C(CCCN1C(=O)/C(=C/c2cccc(Br)c2)SC1=S)Nc1ccccn1
18.8 µM (active)	CO[C@H]1CN(C)C(=O)c2cc(NC(=O)c3nc4ccccc4s3)ccc2OC[C@H](C)N(Cc2cccnc2)C[C@H]1C

target: T3, Cytochrome P450 1A2 (Homo sapiens, UniProt P05177); experiment: not given; conditions: not given;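 also: PubChem cytochrome P450 panel assay, CYP1A2 panel member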
T3 sequence (P05177 whole entry): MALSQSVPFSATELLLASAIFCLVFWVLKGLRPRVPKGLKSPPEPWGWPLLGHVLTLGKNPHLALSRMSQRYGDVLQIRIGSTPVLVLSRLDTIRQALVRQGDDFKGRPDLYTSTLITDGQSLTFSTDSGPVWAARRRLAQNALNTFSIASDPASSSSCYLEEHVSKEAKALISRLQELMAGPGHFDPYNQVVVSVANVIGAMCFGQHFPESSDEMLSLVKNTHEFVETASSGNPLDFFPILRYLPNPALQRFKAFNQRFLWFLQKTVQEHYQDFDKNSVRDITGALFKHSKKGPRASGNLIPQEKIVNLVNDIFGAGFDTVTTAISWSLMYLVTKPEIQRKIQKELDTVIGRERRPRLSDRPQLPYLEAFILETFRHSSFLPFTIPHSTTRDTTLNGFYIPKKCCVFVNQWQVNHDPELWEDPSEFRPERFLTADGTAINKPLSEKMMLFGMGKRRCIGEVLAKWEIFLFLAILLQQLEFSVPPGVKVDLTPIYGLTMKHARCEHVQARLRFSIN

Compound	AC50
COc1ccc(/C=N/NC(=O)c2sccc2OCc2ccc(F)cc2)cc1OC	14.1 µM (inconclusive)
CCCn1c(=O)c2[nH]c(-c3ccc(OCC(=O)Nc4ccc(C#N)cc4)cc3)nc2n(CCC)c1=O	31.6 µM (inconclusive)
